Results from ChEMBL document CHEMBL1821584, “Docking and 3D-QSAR (quantitative structure activity relationship) studies of flavones, the potent inhibitors of p-glycoprotein targeting the nucleotide binding domain” (Eur J Med Chem, 2011).

target: ATP-dependent translocase ABCB1 (Homo sapiens, UniProt P08183); assay: Binding affinity to ABCB1 nucleotide binding domain 2
Sequence (P08183 whole entry, the tested form may be a part): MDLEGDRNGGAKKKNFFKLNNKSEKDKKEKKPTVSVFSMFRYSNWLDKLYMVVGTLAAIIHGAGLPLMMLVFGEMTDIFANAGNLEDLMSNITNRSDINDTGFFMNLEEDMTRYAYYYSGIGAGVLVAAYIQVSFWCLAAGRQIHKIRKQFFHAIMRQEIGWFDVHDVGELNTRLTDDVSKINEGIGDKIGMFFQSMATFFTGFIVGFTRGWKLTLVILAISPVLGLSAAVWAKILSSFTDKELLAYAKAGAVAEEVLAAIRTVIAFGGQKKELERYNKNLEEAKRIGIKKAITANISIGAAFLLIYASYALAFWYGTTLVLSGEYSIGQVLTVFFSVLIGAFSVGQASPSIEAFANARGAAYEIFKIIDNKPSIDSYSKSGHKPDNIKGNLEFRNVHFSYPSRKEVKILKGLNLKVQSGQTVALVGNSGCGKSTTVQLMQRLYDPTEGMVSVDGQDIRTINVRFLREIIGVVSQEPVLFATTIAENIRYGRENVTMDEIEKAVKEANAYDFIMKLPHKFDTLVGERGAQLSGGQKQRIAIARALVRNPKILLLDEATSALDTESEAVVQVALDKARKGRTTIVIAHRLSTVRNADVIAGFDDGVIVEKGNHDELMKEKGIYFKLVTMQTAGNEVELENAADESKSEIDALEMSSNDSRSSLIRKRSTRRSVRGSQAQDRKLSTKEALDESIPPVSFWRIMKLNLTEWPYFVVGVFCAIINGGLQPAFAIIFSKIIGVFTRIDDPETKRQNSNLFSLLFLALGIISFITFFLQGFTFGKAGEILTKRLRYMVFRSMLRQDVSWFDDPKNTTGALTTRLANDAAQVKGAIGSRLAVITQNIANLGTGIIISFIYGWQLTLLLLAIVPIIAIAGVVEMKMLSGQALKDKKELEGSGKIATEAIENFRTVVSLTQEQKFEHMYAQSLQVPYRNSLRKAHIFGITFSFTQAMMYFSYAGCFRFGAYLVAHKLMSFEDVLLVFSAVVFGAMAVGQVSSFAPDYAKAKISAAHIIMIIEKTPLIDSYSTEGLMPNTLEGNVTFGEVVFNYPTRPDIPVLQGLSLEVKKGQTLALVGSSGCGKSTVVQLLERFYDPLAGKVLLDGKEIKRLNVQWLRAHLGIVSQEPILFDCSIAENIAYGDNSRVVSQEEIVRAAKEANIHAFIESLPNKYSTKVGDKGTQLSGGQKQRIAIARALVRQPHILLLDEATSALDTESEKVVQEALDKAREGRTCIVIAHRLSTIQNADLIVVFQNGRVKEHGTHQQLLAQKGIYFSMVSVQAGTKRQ

| Structure (SMILES) | Kd |
| --- | --- |
| Cc1c(O)cc2oc(-c3ccccc3)cc(=O)c2c1O | 3090 nM |
| CC(C)Oc1cc(O)c2c(=O)cc(-c3ccccc3)oc2c1 | 1000 nM |
| O=c1c(O)c(-c2ccc(Cl)cc2Cl)oc2cc(O)cc(O)c12 | 3980 nM |
| O=c1cc(-c2ccccc2)oc2c(Cc3ccccc3)c(O)cc(O)c12 | 1000 nM |
| O=c1c(O)c(-c2ccc(F)cc2)oc2cc(O)cc(O)c12 | 6760 nM |
| O=c1c(O)c(-c2ccc(I)cc2)oc2cc(O)cc(O)c12 | 1100 nM |
| O=c1cc(-c2ccc(F)c(F)c2)oc2cc(O)cc(O)c12 | 6310 nM |
| O=c1c(O)c(C(c2ccccc2)c2ccccc2)oc2cc(O)cc(O)c12 | 2000 nM |
| COc1c(-c2ccccc2)oc2cc(O)cc(O)c2c1=O | 8910 nM |
| O=c1cc(-c2ccc(I)cc2)oc2cc(O)cc(O)c12 | 2190 nM |
| COc1cc2oc(-c3ccccc3)cc(=O)c2c(O)c1C | 1290 nM |
| O=c1cc(-c2ccccc2)oc2cc(O)ccc12 [7-HYDROXYFLAVONE] | 34700 nM |
| O=c1cc(-c2ccc(O)cc2)oc2cc(O)cc(O)c12 [APIGENIN] | 10000 nM |
| O=c1cc(-c2ccccc2)oc2cc(O)cc(O)c12 [CHRYSIN] | 8910 nM |
| O=c1cc(-c2ccccc2)oc2ccccc12 [FLAVONE] | 33900 nM |
| O=c1c(O)c(-c2ccccc2)oc2ccccc12 [FLAVONOL] | 10000 nM |
| O=c1c(O)c(-c2ccccc2)oc2cc(O)cc(O)c12 [GALANGIN] | 5890 nM |
| O=c1c(-c2ccc(O)cc2)coc2cc(O)cc(O)c12 [GENISTEIN] | 26300 nM |
| COc1ccc(-c2oc3cc(O)cc(O)c3c(=O)c2O)cc1 [KAEMPFERIDE] | 4470 nM |
| O=c1c(O)c(-c2ccc(O)cc2)oc2cc(O)cc(O)c12 [KAEMPFEROL] | 6760 nM |
| COc1cc(O)c2c(=O)cc(-c3ccccc3)oc2c1 [TECHTOCHRYSIN] | 6310 nM |

These reach a lower Kd. Values come first.

| Kd | Structure (SMILES) |
| --- | --- |
| 708 nM | C=CC(C)(C)c1c(O)cc(O)c2c(=O)cc(-c3ccc(O)cc3)oc12 |
| 447 nM | C=CC(C)(C)c1c(O)cc(O)c2c(=O)c(O)c(-c3ccccc3)oc12 |
| 339 nM | O=c1cc(-c2ccccc2)oc2cc(O)c(Cc3ccccc3)c(O)c12 |
| 302 nM | CC(C)=Cc1c(O)cc2oc(-c3ccccc3)cc(=O)c2c1O |
| 282 nM | CC(C)Oc1cc2oc(-c3ccccc3)cc(=O)c2c(O)c1C(C)C |
| 282 nM | CC(C)=Cc1c(O)cc(O)c2c(=O)cc(-c3ccccc3)oc12 |
| 219 nM | CC(C)=Cc1c(O)cc(O)c2c(=O)c(O)c(-c3ccccc3)oc12 |
| 209 nM | CC(C)c1c(O)cc2oc(-c3ccccc3)cc(=O)c2c1O |
| 209 nM | CC(C)=Cc1c(O)cc2oc(-c3ccccc3)c(O)c(=O)c2c1O |
| 200 nM | C=CC(C)(C)c1c(O)cc(O)c2c(=O)cc(-c3ccccc3)oc12 |
| 200 nM | C=CC(C)(C)c1c(O)cc(O)c2c(=O)c(O)c(-c3ccc(OC)cc3)oc12 |
| 151 nM | C=CC(C)(C)c1c(OC)cc(O)c2c(=O)c(OC)c(-c3ccccc3)oc12 |
| 67.6 nM | O=c1cc(-c2ccccc2)oc2cc(OCc3ccccc3)cc(O)c12 |
| 57.5 nM | CCCCCCCCc1ccc(-c2oc3cc(O)cc(O)c3c(=O)c2O)cc1 |
| 44.7 nM | CC(C)=CCC/C(C)=C/c1c(O)cc2oc(-c3ccccc3)cc(=O)c2c1O |
| 36.3 nM | O=c1cc(-c2ccccc2)oc2c(Cc3ccccc3)c(O)c(Cc3ccccc3)c(O)c12 |
| 33.1 nM | CC(C)Oc1c(C(C)C)c(O)c2c(=O)cc(-c3ccccc3)oc2c1C(C)C |
| 25.1 nM | CC(C)=CCC/C(C)=C/c1c(O)cc(O)c2c(=O)cc(-c3ccccc3)oc12 |
| 15.1 nM | CC(C)=Cc1c(O)c(C=C(C)C)c2oc(-c3ccccc3)cc(=O)c2c1O |
